Results as given in patent publication EP0318860B1, “Substituted alkylamine derivatives” (BANYU PHARMACEUTICAL CO., LTD., priority 1987, dated 1989).
Converted amounts (≈) assume the structure as drawn. Counter-ions that a name gives are not always drawn. Like-named read-outs stand apart in the source and are kept apart here.

Legend:
[1] = tested on: cholesterol biosynthesis in the cultured Hep-G2 cells; assay: Inhibitory activity on cholesterol biosynthesis in cultured cells ([14C] acetate incorporation); type: cell-based; details: HepG2; Human hepatoma (Hep-G2) cells, [14C] sodium acetate, 6 hours; read-out: 50% inhibitory concentration (IC₅₀)
Method: Human hepatoma (Hep-G2) cells were cultured in 10 cm² dishes until they formed a monolayer. One milliliter of the culture medium was replaced, and 1 µCi of [¹⁴C] sodium acetate and 1 microliter of a dimethyl sulfoxide solution of a test drug were added, and the cells were cultured at 37 °C in air containing 5 % of carbon dioxide for 6 hours.
After the cultivation, the medium was aspirated, and the cells were cooled with ice, and washed with Dulbecco's phosphate buffered saline solution. The resulting cells were scraped by a rubber policeman, and collected by centrifugation. The cells collected were dissolved in 400 microliters of 0.3N sodium hydroxide. A 200 microliters aliquot of the solution was used for extraction, and the remainder, for protein determination.
To 200 microliters of the extracted cells, 15 % ethanolic potassium hydroxide was added, and saponification was carried out at 75 °C for 1 hour. Water (1 ml) was then added, and the mixture was extracted with 2 ml of petroleum ether twice to remove non-saponified materials. The petroleum ether extracts were washed with 1 ml of water, and evaporated under a nitrogen stream. The residue was spotted on a pre-coated silica gel TLC plate using a small amount of chloroform, and developed with hexane/ethyl ether/acetic acid (85:15:4). Cholesterol and squalene portions on the TLC were detected with iodine, and the corresponding TLC portions were cut out. The TLC strips were immersed in a toluene-type scintillator, and radioactivity was counted by a liquid scintillation counter. The results were corrected by the amount of proteins measured by the method described in J. Biol. Chem., vol. 193, page 265, 1951. The 50 % inhibitory concentration (IC₅₀ value) of the compound of the invention on cholesterol biosynthesis in the cultured Hep-G2 cells was calculated.

rat squalene epoxidase = molecular target: T1, rat squalene epoxidase (Rattus norvegicus, UniProt P52020); assay: Squalene epoxidase inhibiting activity (3H-squalene to squalene-2,3-epoxide, solubilized liver microsome fraction); type: biochemical; details: 8 µM 3H-squalene, 37 °C, 30 minutes, read-out: 50 % inhibitory concentration (IC50)
T1 construct: Livers were extracted and homogenized; from tissue; host or cells: liver of SD-strain female rats; microsomes solubilized with 2 % Triton X-100, 105000 x g supernatant
T1 sequence (P52020 whole entry): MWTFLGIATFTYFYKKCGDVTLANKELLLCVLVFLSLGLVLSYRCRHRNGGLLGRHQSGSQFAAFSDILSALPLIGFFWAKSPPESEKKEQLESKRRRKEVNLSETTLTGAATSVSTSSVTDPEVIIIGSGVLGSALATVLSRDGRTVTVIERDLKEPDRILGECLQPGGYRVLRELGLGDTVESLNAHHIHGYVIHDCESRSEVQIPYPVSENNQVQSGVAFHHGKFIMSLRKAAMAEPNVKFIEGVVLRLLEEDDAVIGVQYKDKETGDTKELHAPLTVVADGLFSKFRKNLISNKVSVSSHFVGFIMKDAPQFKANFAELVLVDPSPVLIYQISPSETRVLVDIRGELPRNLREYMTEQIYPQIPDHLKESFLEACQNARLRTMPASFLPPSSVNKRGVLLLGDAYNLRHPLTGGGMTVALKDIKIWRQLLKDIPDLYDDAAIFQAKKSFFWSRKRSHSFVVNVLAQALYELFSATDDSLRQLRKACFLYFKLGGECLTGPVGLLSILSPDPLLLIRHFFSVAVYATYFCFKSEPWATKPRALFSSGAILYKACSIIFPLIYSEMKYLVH
Method: The rat squalene epoxidase was prepared by the method described in J. Biol. Chem., vol.
SD-strain female rats were killed by exsanguination. Livers were extracted and homogenized with in the presence of 2 volumes of 0.1M Tris-HCl buffer (pH 7.5). The homogenate was centrifuged at 9750 Xg for 10 minutes. The supernatant fraction was further centrifuged at 105000 Xg for 1 hour. The sediment was washed with 0.1M Tris-HCl buffer (pH 7.5), and then centrifuged at 105000 Xg for 1 hour. The microsomes obtained were suspended in 0.1M Tris-HCl buffer (pH 7.5) so that the amount of proteins was 40 mg/ml, and under ice cooling, the suspension was stirred in the presence of 2 % Triton X-100 to solubilize the enzyme. After the solubilization, the solution was diluted to a Triton X-100 concentration of 0.5 % with 1 mM EDTA and 1 mM dithiothreitol, and centrifuged at 105000 Xg for 1 hour. The resulting supernatant fraction was used in the following test as a squalene epoxidase fraction.
The squalene epoxidase activity was assayed in accordance with the method described in J. Biol. Chem., vol.
Three microliters of a dimethyl sulfoxide solution of a test drug was added to a solution composed of 0.2 ml of the squalene epoxidase fraction prepared in (1) [proteins 0.4 mg, 0.5 % Triton X-100, […] Tris-HCl buffer (pH 7.5)], 100 µM FAD, 1 mM NADPH, 1 mM EDTA and 8 µM ³H-squalene-Tween 80 emulsion to adjust the total amount of the solution to 0.3 ml. The solution was incubated at 37 °C for 30 minutes with shaking. Then, 0.3 ml of a 10 % methanolic potassium hydroxide was added to stop the reaction, and the reaction mixture was left to stand at room temperature for 1 hour. The non-saponified material was extracted with petroleum ether, and the solvent was evaporated under a nitrogen stream. […] The position of the resulting ³H-squalene-2,3-epoxide on TLC was determined using ergosterol acetate as a marker, and the ³H-squalene-2,3-epoxide portion on the TLC was cut off. The TLC strip was immersed in a toluene-type scintillator, and measured by a liquid scintillation counter.

Trichophyton = assay: Antimycotic activity test (Sabouraud's agar dilution, MIC); type: cell-based; details: 120 h
Method: (§1) Each of the test fungi was cultured (Candida albicans was cultured overnight in Sabouraud broth; Trichophyton was inoculated in Sabouraud's agar and cultured for 2 days, after which the spores were harvested). Thereafter, one platinum loopful of Candida albicans or Trichophyton (10⁶ cells/ml for C. albicans; 10⁶ spores/ml for Trichophyton) was inoculated in Sabouraud's agar containing the test drug in various concentrations, and cultured (at 37 °C for 2 days for C. albicans; at 28 °C for 5 days for Trichophyton). Then, the minimum growth inhibition concentration (MIC) was measured. […]

Candida albicans = assay: as above; type: cell-based; details: 48 h
Method: as §1

cholesterol biosynthesis = assay: Test on inhibition of cholesterol biosynthesis in vivo ([14C] acetate, plasma 14C-cholesterol); details: male SD rats, 100 mg/kg orally; for ¹⁴C-cholesterol: dpm of 14C-cholesterol present in 1 ml of the plasma; for Inhibition of cholesterol biosynthesis: test group compared with control group
Method: Male SD rats, 5 weeks of age, were used in the in vivo test. The rats were kept for 9 days in an environment of reversed light cycle (i.e., dark between 6:00 am and 6:00 pm). The rats were allowed to take a solid diet and water freely. The test drug was orally administered two hours before dark sixth hour when the cholesterol synthesis reached a maximum. Compounds 6 and 44 were administered as a suspension in a 0.5 % aqueous solution of methyl cellulose. Compound 45 was administered in a 0.5 % aqueous solution of methyl cellulose containing 5 % of dimethyl sulfoxide and 1 % Tween 80. The dose was 1 ml/100 g of body weight.
An equal volume of 0.5 % methyl cellulose was administered to a control group. One hour after administration of the test drug, [¹⁴C] sodium acetate (56 mCi/mmole) was intraperitoneally administered to the rats in a dose of 20 µCi/100 g of body weight. At dark sixth hour, a blood sample was obtained from the abdominal artery under ether anesthesia, and the plasma was separated by centrifugation.
Two milliliters of plasma was mixed with a 15 % methanolic potassium hydroxide and saponified by heating at 75 °C for 3 hours. The resulting sample was extracted with 2 ml of petroleum ether twice. The extracts were washed with 2 ml of distilled water, and finally evaporated under a nitrogen stream. The resulting residue was dissolved in a small amount of ethyl ether, and all the solution was spotted on a pre-coated silica gel TLC plate. The plate was developed with a solvent system composed of hexane/ethyl ether/acetic acid (85:15:4). Color formation was carried out by iodine, and the radioactivity of the cholesterol portion was measured by a liquid scintillation counter.
The results were expressed in dpm of the resulting ¹⁴C-cholesterol present in 1 ml of the plasma. The inhibition of cholesterol biosynthesis was calculated by comparing the amounts of ¹⁴C-cholesterol biosynthesized in the test group and that in the control group.

[2] = 28 °C for 5 days, read-out: MIC
[3] = C. albicans, 37 °C for 2 days, read-out: MIC

SMILES	IC50 [1] [nM]	IC50 (rat squalene epoxidase) [nM]	MIC (Trichophyton; [2]) [µg/mL]	MIC (Candida albicans; [3]) [µg/mL]	¹⁴C-cholesterol (cholesterol biosynthesis) [dpm]	Inhibition of cholesterol biosynthesis (cholesterol biosynthesis) [%]	MIC (Trichophyton) [µg/mL]	MIC (Candida albicans) [µg/mL]
CCCN(C/C=C/C#CC(C)(C)C)Cc1cccc(OCc2cccc(C#N)c2)c1 [Compound 47, (E)-N-(6,6-dimethyl-2-hepten-4-ynyl)-N-propyl-3-(3-cyanobenzyloxy)benzylamine hydrochloride]	90	150	–	–	–	–	–	–
CN(C/C=C/C#CC(C)(C)C)Cc1cccc(OCc2cccc3ccccc23)c1 [Compound 18, (E)-N-(6,6-dimethyl-2-hepten-4-ynyl)-N-methyl-3-(1-naphthylmethyloxy)benzylamine]	–	250	> 100	> 100	–	–	–	–
CN(C/C=C/C#CC(C)(C)C)Cc1cccc(/C=C/c2ccccc2)c1.Cl [Compound 97, N-[(E)-6,6-dimethyl-2-hepten-4-ynyl]-N-methyl-3-[(E)-styryl]benzylamine hydrochloride]	–	320	> 100	> 100	–	–	–	–
CC(C)=CCOc1cccc(CN(C)C/C=C/C#CC(C)(C)C)c1 [Compound 61, (E)-N-(6,6-dimethyl-2-hepten-4-ynyl)-N-methyl-3-(3-methyl-2-butenyloxy)benzylamine]	–	6100	> 100	> 100	–	–	–	–
CCN(C/C=C/C#CC(C)(C)C)Cc1cccc(OCc2ccccc2C)c1.Cl [Compound 44, (E)-N-(6,6-dimethyl-2-hepten-4-ynyl)-N-ethyl-3-(2-methylbenzyloxy)benzylamine hydrochloride]	50	160	–	–	568±313	69	–	–
CN(C/C=C/C#CC(C)(C)C)Cc1cc(OCc2ccccc2)ccn1.Cl.Cl [Compound 110, (E)-N-(6,6-dimethyl-2-hepten-4-ynyl)-N-methyl-4-benzyloxy-2-pyridylmethylamine dihydrochloride]	–	1500	> 100	> 100	–	–	–	–
CN(C/C=C/C#CC(C)(C)C)Cc1cccc2ccccc12 [terbinafine, reference compound]	–	> 100000	–	–	–	–	< 0.01	0.3 (≈ 1.03 µM)
Cc1ccccc1COc1cccc(CN(C)C/C=C/C#CC(C)(C)C)c1.Cl [Compound 6, (E)-N-(6,6-dimethyl-2-hepten-4-ynyl)-N-methyl-3-(2-methylbenzyloxy)benzylamine hydrochloride]	340	560	–	–	862±387	53	–	–
CN(C/C=C/C#CC(C)(C)C)Cc1cccc(OCc2ccccc2)c1.Cl [Compound 2, (E)-N-(6,6-dimethyl-2-hepten-4-ynyl)-N-methyl-3-benzyloxybenzylamine hydrochloride]	1500	1400	> 100	> 100	–	–	–	–
CCCN(C/C=C/C#CC(C)(C)C)Cc1cccc(OCc2ccccc2C)c1.Cl [Compound 45, (E)-N-(6,6-dimethyl-2-hepten-4-ynyl)-N-propyl-3-(2-methylbenzyloxy)benzylamine hydrochloride]	83	120	> 100	> 100	274±155	85	–	–
CN(C/C=C/C#CC(C)(C)C)Cc1cccc(CCc2ccccc2)c1 [Compound 107, (E)-N-(6,6-dimethyl-2-hepten-4-ynyl)-N-methyl-3-(beta-phenethyl)benzylamine]	–	3600	> 100	> 100	–	–	–	–
CCN(C/C=C/C#CC(C)(C)C)Cc1cccc(OCc2cccc(C#N)c2)c1 [Compound 46, (E)-N-(6,6-dimethyl-2-hepten-4-ynyl)-N-ethyl-3-(3-cyanobenzyloxy)benzylamine]	110	150	–	–	–	–	–	–
CN(C/C=C/C#CC(C)(C)C)Cc1cccc(OCc2cccc(C#N)c2)c1.Cl [Compound 64, (E)-N-(6,6-dimethyl-2-hepten-4-ynyl)-N-methyl-3-(3-cyanobenzyloxy)benzylamine hydrochloride]	120	510	> 100	> 100	–	–	–	–
CN(C/C=C/C#CC(C)(C)C)Cc1cccc(OCc2cccc(-c3cncs3)c2)c1 [Compound 79, (E)-N-(6,6-dimethyl-2-hepten-4-ynyl)-N-methyl-3-[3-(5-thiazolyl)benzyloxy]benzylamine]	23	89	–	–	–	–	–	–
Cc1ccccc1CNc1cccc(CN(C)C/C=C/C#CC(C)(C)C)c1 [Compound 103, (E)-N-(6,6-dimethyl-2-hepten-4-ynyl)-N-methyl-3-(2-methylbenzylamino)benzylamine hydrochloride]	450	360	–	–	–	–	–	–
CCCN(C/C=C/C#CC(C)(C)C)Cc1cccc(OCc2ccccc2)c1 [Compound 37, (E)-N-(6,6-dimethyl-2-hepten-4-ynyl)-N-propyl-3-benzyloxybenzylamine]	85	270	–	–	–	–	–	–
CCN(C/C=C/C#CC(C)(C)C)Cc1cccc(OCc2ccccc2)c1 [Compound 36, (E)-N-(6,6-dimethyl-2-hepten-4-ynyl)-N-ethyl-3-benzyloxybenzylamine hydrochloride]	64	300	–	–	–	–	–	–
CN(C/C=C/C#CC(C)(C)C)Cc1cccc(OCc2cccc(-c3cnco3)c2)c1 [Compound 78, (E)-N-(6,6-dimethyl-2-hepten-4-ynyl)-N-methyl-3-[3-(5-oxazolyl)benzyloxy]benzylamine]	20	63	–	–	–	–	–	–
